In patent US10287255B2, “Compounds as histone deacetylase 6 inhibitors and pharmaceutical compositions comprising the same” (CHONG KUN DANG PHARMACEUTICAL CORP., priority 2014, dated 2019):

Experiments:
[1] = molecular target: T1, human recombinant HDAC1 (Homo sapiens, UniProt Q13547); test: HDAC1 enzyme activity inhibition assay (in vitro, fluorimetric); format: biochemical; details: human recombinant HDAC1, fluorimetric kit, 30° C. 60 minutes
T1 construct: purchased Enzo Life Science BML-SE456
Method in brief: (§1)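 IC50 values derive from fluorescence (Ex 360, Em 460) after developer treatment (30 min) of reactions of recombinant human HDAC1 or HDAC6 with 10 μM Fluor de Lys-SIRT1 substrate (60 min, 30 °C). Compounds were serially diluted 5-fold; 0.3 μg enzyme was used for HDAC1, with HDAC6 tested identically.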

[2] = molecular target: T2, human recombinant HDAC6 (Homo sapiens, UniProt Q9UBN7); test: HDAC6 enzyme activity inhibition assay (in vitro, fluorimetric); format: biochemical; details: for HDAC6 selectivity (fold): HDAC6 selectivity over HDAC1; for IC50: human recombinant HDAC6, fluorimetric kit, same protocol as HDAC1
T2 construct: purchased Calbiochem 382180
T2 sequence (Q9UBN7 1-1215): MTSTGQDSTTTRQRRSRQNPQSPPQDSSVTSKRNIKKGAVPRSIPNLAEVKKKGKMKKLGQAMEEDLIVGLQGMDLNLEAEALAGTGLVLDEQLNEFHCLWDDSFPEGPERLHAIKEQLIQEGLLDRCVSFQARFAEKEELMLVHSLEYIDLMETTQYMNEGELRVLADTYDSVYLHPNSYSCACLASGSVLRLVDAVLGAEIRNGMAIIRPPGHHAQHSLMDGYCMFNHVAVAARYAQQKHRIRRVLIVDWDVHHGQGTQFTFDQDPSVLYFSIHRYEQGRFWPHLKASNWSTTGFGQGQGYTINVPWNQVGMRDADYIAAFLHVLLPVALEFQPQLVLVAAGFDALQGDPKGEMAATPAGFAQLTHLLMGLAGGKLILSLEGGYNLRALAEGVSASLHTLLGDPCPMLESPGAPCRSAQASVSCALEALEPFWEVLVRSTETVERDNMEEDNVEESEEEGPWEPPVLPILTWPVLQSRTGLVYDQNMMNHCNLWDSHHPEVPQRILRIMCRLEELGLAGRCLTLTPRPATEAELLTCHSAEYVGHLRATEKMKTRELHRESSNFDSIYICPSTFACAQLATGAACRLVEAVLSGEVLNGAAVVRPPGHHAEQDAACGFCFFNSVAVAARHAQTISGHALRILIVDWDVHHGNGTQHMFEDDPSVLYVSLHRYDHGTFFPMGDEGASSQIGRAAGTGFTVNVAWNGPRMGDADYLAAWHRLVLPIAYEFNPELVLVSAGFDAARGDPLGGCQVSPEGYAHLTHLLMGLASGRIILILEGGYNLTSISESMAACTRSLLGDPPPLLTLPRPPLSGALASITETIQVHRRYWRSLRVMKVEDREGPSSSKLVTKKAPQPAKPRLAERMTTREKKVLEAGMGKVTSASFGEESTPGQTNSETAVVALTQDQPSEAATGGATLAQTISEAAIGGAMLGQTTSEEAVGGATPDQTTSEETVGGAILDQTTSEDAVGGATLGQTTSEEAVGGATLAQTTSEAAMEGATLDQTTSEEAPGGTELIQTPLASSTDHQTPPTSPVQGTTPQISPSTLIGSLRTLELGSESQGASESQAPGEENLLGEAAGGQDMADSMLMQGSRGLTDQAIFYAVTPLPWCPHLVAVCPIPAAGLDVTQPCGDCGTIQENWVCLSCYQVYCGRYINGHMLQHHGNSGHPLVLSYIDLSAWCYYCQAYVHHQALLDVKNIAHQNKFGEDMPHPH
Method in brief: as §1

T1 sequence (Q13547 whole entry): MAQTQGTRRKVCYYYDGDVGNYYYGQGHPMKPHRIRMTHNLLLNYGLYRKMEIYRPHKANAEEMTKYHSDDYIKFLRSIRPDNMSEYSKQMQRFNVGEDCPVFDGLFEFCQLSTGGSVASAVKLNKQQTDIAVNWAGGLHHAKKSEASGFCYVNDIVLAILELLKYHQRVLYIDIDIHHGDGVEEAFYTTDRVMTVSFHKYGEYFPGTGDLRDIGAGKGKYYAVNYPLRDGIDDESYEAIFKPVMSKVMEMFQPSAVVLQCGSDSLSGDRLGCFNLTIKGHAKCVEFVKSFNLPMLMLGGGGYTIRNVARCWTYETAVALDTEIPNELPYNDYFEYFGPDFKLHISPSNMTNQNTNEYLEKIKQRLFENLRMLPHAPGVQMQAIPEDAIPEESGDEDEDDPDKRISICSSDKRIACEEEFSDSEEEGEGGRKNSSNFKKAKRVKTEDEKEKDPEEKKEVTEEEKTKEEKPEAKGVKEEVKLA

| SMILES | IC50 [1] [µM] | HDAC6 selectivity (fold) [2] [fold] | IC50 [2] [nM] |
| --- | --- | --- | --- |
| C[C@@H]1CN(Cc2ccc(C(=O)NO)cc2)C[C@H](C)N1C(=O)c1ccccn1 [Compound 123, 4-(((3R,5S)-3,5-dimethyl-4-picolinoylpiperazin-1-yl)methyl)-N-hydroxybenzamide] | 15.5 | 2584 | 6 |
| C[C@@H]1CN(Cc2ccc(C(=O)NO)cc2)C[C@H](C)N1Cc1cccc(CN2CCN(Cc3ccccc3)CC2)c1 [Compound 385, 4-(((3R,5S)-4-(3-((4-benzylpiperazin-1-yl)methyl)benzyl)-3,5-dimethylpiperazin-1-yl)methyl)-N-hydroxybenzamide] | > 10 | >53 | 189 |
| C[C@@H]1CN(Cc2ccccc2C2=CCC(C)(C)CC2)C[C@H](C)N1Cc1ccc(C(=O)NO)cc1 [Compound 352, 4-(((2S,6R)-4-((4′,4′-dimethyl-2′,3′,4′,5′-tetrahydro-[1,1′-biphenyl]-2-yl)methyl)-2,6-dimethylpiperazin-1-yl)methyl)-N-hydroxybenzamide] | 13.8 | >13 | 1060 |
| C[C@@H]1CN(C(=O)c2ccccc2-c2ccoc2)C[C@H](C)N1Cc1ccc(C(=O)NO)cc1 [Compound 277, 4-(((2S,6R)-4-(2-(furan-3-yl)benzoyl)-2,6-dimethylpiperazin-1-yl)methyl)-N-hydroxybenzamide] | 10.4 | 23 | 455 |
| C[C@@H]1CN(Cc2ccc(C(=O)NO)c(O)c2)C[C@H](C)N1Cc1cccc(CN2CCOCC2)c1 [Compound 653, 4-(((3R,5S)-3,5-dimethyl-4-(3-(morpholinomethyl)benzyl)piperazin-1-yl)methyl)-N,2-dihydroxybenzamide] | > 10 | >23 | 420 |
| C[C@@H]1CN(Cc2ccc(C(=O)NO)cc2)C[C@H](C)N1C(=O)Cc1cccc(Cl)c1 [Compound 224, 4-(((3R,5S)-4-(2-(3-chlorophenyl)acetyl)-3,5-dimethylpiperazin-1-yl)methyl)-N-hydroxybenzamide] | 1.7 | 14 | 120 |
| C[C@@H]1CN(C(=O)c2ccc(CCC(=O)NO)cc2)C[C@H](C)N1Cc1ccccc1 [Compound 824, 3-(4-((3R,5S)-4-benzyl-3,5-dimethylpiperazine-1-carbonyl)phenyl)-N-hydroxypropanamide] | 4.1 | 22 | 180 |
| C[C@@H]1CN(Cc2ccc(C(=O)NO)cc2)C[C@H](C)N1C(=O)c1ccc(CN2CC[C@@H](F)C2)cc1 [Compound 460, 4-(((3R,5S)-4-(4-(((R)-3-fluoropyrrolidin-1-yl)methyl)benzoyl)-3,5-dimethylpiperazin-1-yl)methyl)-N-hydroxybenzamide] | 4.4 | 20 | 219 |
| C[C@@H]1CN(Cc2ccc(C(=O)NO)cc2)C[C@H](C)N1C(=O)Cc1cccc(-c2ccccc2)c1 [Compound 234, 4-(((3R,5S)-4-(2-([1,1′-biphenyl]-3-yl)acetyl)-3,5-dimethylpiperazin-1-yl)methyl)-N-hydroxybenzamide] | 8.9 | 17 | 512 |
| C[C@@H]1CN(Cc2ccc(C(=O)NO)cc2)C[C@H](C)N1Cc1ccc2ccccc2c1 [Compound 265, 4-(((3R,5S)-3,5-dimethyl-4-(naphthalen-2-ylmethyl)piperazin-1-yl)methyl)-N-hydroxybenzamide] | 6.2 | 84 | 74 |
| CC(C)NC(=O)N1C[C@@H](C)N(Cc2ccc(C(=O)NO)cc2)[C@@H](C)C1 [Compound 103, (3R,5S)-4-(4-(hydroxycarbamoyl)benzyl)-N-isopropyl-3,5-dimethylpiperazine-1-carboxamide] | 2.6 | 15 | 173 |
| CCC(=O)N1[C@H](C)CN(Cc2ccc(C(=O)NO)cc2)C[C@@H]1C [Compound 293, 4-(((3R,5S)-3,5-dimethyl-4-propionylpiperazin-1-yl)methyl)-N-hydroxybenzamide] | 5.8 | 44 | 131 |
| C[C@@H]1CN(Cc2ccc(C(=O)NO)cc2)C[C@H](C)N1Cc1cccc(Cl)c1C(F)(F)F [Compound 267, 4-(((3R,5S)-4-(3-chloro-2-(trifluoromethyl)benzyl)-3,5-dimethylpiperazin-1-yl)methyl)-N-hydroxybenzamide] | 14.2 | 75 | 188 |
| C[C@@H]1CN(Cc2ccc(C(=O)NO)cc2)C[C@H](C)N1C(=O)c1ccccc1-c1ccco1 [Compound 283, 4-(((3R,5S)-4-(2-(furan-2-yl)benzoyl)-3,5-dimethylpiperazin-1-yl)methyl)-N-hydroxybenzamide] | 3.5 | 154 | 23 |
| C[C@@H]1CN(Cc2ccc(C(=O)NO)cc2)C[C@H](C)N1Cc1cncnc1 [Compound 355, 4-(((3R,5S)-3,5-dimethyl-4-(pyrimidin-5-ylmethyl)piperazin-1-yl)methyl)-N-hydroxybenzamide] | 21 | 20 | 1060 |
| C[C@@H]1CN(Cc2ccc(C(=O)NO)cc2)C[C@H](C)N1C(=O)c1cccc(Cl)c1 [Compound 121, 4-(((3R,5S)-4-(3-chlorobenzoyl)-3,5-dimethylpiperazin-1-yl)methyl)-N-hydroxybenzamide] | 11.8 | 407 | 29 |
| C[C@@H]1CN(Cc2ccc(C3=CCOCC3)cc2)C[C@H](C)N1Cc1ccc(C(=O)NO)cc1 [Compound 401, 4-(((2S,6R)-4-(4-(3,6-dihydro-2H-pyran-4-yl)benzyl)-2,6-dimethylpiperazin-1-yl)methyl)-N-hydroxybenzamide] | 2 | 7 | 301 |
| C[C@@H]1CN(Cc2ccc(C(=O)NO)cc2)C[C@H](C)N1Cc1ccccc1CN1CCOCC1 [Compound 457, 4-(((3R,5S)-3,5-dimethyl-4-(2-(morpholinomethyl)benzyl)piperazin-1-yl)methyl)-N-hydroxybenzamide] | 0.3 | 2 | 146 |
| C[C@@H]1CN(Cc2ccc(C(=O)NO)cc2)C[C@H](C)N1C(=O)c1cccc(CN2CCCCC2)c1 [Compound 424, 4-(((3R,5S)-3,5-dimethyl-4-(3-(piperidin-1-ylmethyl)benzoyl)piperazin-1-yl)methyl)-N-hydroxybenzamide] | 1.2 | 27 | 43 |
| C[C@@H]1CN(C(=O)c2ccccc2-c2ccco2)C[C@H](C)N1Cc1ccc(C(=O)NO)cc1 [Compound 276, 4-(((2S,6R)-4-(2-(furan-2-yl)benzoyl)-2,6-dimethylpiperazin-1-yl)methyl)-N-hydroxybenzamide] | 12.3 | 36 | 337 |
| C[C@@H]1CN(C(=O)c2cccnc2)C[C@H](C)N1Cc1ccc(C(=O)NO)cc1 [Compound 112, 4-(((2S,6R)-2,6-dimethyl-4-nicotinoylpiperazin-1-yl)methyl)-N-hydroxybenzamide] | > 10 | >65 | 154 |
| CC(C)N1C[C@@H](C)N(Cc2ccc(C(=O)NO)cc2)[C@@H](C)C1 [Compound 273, N-hydroxy-4-(((2S,6R)-4-isopropyl-2,6-dimethylpiperazin-1-yl)methyl)benzamide] | 13.7 | 31 | 441 |
| C[C@@H]1CN(C(=O)N2CCc3ccccc32)C[C@H](C)N1Cc1ccc(C(=O)NO)cc1 [Compound 197, N-hydroxy-4-(((2S,6R)-4-(indoline-1-carbonyl)-2,6-dimethylpiperazin-1-yl)methyl)benzamide] | 2.1 | 12 | 177 |
